According to patent US20240269139A1, “COMPOUNDS FOR TARGETED PROTEIN DEGRADATION OF KINASES” (DANA-FARBER CANCER INSTITUTE, INC., priority 2020, published 2024):
Where two headings read alike, the source gives them in different places.

Assays:
Type in all cases: cell-based
[1] = target: protein kinases (human kinome) (Homo sapiens, UniProt Q9NSY1); settings: BMP2K Q9NSY1
[2] = target: T1, protein kinases (human kinome) (Homo sapiens, UniProt Q8TD19)
T1 sequence (Q8TD19 1-979): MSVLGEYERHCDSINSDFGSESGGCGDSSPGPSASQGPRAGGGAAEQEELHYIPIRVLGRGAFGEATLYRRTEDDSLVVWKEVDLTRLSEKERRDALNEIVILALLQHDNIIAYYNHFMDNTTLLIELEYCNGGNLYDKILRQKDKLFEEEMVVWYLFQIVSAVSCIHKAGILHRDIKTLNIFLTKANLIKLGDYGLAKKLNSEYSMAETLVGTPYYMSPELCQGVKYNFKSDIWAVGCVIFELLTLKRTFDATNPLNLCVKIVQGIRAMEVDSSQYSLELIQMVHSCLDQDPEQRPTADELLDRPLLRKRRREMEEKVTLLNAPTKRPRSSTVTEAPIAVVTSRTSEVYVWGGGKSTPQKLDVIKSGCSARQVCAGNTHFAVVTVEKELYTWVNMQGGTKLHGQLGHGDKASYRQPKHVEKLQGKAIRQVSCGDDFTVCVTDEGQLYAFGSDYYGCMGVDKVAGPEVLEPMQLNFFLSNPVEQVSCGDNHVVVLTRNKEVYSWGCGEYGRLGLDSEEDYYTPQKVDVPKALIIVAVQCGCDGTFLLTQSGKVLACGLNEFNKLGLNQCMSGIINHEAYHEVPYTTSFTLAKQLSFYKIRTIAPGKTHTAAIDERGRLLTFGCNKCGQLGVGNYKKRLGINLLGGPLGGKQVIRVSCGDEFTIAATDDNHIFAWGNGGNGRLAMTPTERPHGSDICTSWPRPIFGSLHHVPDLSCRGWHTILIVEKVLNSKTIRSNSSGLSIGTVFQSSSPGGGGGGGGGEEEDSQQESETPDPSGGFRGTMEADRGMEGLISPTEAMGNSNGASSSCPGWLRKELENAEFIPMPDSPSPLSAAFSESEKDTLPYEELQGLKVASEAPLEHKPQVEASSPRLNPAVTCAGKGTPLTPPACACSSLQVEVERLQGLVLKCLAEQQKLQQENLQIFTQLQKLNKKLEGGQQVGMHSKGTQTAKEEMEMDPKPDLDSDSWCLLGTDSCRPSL

[3] = target: protein kinases (human kinome) (Homo sapiens, UniProt Q05397)
Sequence of protein kinases (human kinome) (Homo sapiens, UniProt Q05397) (Q05397 whole entry): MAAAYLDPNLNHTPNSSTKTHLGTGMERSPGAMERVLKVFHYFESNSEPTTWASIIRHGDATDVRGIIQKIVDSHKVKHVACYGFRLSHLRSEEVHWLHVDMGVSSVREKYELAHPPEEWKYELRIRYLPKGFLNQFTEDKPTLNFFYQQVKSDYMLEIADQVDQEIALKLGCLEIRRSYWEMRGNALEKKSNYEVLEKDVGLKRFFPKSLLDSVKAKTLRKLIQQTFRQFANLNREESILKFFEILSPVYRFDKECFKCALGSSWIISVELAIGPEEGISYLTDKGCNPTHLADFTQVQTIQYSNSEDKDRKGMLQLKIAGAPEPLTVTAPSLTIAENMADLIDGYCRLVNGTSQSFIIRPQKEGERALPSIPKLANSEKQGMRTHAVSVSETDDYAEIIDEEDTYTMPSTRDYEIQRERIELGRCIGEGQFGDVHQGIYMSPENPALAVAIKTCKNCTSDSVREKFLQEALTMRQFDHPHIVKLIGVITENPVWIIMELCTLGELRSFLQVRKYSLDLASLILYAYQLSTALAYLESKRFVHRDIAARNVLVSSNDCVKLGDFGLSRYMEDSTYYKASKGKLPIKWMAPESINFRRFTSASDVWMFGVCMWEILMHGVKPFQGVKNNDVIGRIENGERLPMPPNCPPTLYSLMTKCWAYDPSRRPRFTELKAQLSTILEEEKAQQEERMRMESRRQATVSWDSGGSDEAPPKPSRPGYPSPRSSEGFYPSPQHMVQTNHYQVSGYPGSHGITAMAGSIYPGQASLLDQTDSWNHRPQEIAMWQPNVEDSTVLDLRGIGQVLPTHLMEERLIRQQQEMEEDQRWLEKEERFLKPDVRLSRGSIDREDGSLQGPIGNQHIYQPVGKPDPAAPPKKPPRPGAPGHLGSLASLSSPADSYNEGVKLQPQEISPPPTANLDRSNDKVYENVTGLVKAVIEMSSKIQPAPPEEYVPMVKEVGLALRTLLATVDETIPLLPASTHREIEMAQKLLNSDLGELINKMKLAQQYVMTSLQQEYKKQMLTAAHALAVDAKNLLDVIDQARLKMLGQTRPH

[4] = target: T2, protein kinases (human kinome) (Homo sapiens, UniProt Q8IVH8); settings: for logFC: MAP4K3 Q8IVH8; for logFC MAP4K3: MAP4K3 Q81VH8
T2 sequence (Q8IVH8 1-894): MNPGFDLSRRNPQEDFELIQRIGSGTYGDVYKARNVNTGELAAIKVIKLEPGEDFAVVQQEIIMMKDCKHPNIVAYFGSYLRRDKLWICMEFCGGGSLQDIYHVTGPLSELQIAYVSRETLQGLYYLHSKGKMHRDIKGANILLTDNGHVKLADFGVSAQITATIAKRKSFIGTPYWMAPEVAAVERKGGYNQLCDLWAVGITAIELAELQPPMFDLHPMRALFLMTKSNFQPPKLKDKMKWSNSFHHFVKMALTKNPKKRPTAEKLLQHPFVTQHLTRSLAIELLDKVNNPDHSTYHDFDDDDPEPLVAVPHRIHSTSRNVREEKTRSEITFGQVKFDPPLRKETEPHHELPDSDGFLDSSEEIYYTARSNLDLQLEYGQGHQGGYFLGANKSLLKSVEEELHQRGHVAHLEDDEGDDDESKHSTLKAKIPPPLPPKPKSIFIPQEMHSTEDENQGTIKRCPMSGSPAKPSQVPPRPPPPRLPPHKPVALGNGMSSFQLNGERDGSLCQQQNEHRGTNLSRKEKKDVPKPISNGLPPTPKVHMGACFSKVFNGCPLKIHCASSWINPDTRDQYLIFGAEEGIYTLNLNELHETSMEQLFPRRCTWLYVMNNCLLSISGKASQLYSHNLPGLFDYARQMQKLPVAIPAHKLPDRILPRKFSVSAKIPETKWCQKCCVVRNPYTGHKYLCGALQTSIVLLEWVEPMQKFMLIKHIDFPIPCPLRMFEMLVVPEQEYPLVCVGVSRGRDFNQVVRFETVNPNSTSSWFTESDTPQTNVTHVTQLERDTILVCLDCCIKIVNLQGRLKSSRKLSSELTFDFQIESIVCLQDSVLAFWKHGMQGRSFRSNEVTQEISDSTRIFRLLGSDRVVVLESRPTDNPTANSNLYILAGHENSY

[5] = target: protein kinases (human kinome) (Homo sapiens, UniProt P23443); settings: for logFC: RPS6KB1 (P23443-1)
Sequence of protein kinases (human kinome) (Homo sapiens, UniProt P23443) (P23443 whole entry): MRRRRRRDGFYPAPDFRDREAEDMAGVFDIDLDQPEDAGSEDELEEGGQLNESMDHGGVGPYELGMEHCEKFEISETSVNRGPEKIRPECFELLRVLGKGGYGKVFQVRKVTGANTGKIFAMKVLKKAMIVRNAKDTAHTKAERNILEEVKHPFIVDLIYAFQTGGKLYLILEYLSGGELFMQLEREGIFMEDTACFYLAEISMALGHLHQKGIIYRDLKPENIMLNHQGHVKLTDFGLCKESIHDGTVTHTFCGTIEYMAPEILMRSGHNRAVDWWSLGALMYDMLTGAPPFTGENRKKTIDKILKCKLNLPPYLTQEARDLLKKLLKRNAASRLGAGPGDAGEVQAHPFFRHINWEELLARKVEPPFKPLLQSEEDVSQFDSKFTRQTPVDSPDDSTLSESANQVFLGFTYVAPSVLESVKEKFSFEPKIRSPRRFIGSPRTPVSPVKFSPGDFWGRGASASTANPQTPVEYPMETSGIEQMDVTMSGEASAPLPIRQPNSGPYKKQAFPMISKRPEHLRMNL

[6] = target: protein kinases (human kinome) (Homo sapiens, UniProt P49840); settings: GSK3A P49840
Sequence of protein kinases (human kinome) (Homo sapiens, UniProt P49840) (P49840 whole entry): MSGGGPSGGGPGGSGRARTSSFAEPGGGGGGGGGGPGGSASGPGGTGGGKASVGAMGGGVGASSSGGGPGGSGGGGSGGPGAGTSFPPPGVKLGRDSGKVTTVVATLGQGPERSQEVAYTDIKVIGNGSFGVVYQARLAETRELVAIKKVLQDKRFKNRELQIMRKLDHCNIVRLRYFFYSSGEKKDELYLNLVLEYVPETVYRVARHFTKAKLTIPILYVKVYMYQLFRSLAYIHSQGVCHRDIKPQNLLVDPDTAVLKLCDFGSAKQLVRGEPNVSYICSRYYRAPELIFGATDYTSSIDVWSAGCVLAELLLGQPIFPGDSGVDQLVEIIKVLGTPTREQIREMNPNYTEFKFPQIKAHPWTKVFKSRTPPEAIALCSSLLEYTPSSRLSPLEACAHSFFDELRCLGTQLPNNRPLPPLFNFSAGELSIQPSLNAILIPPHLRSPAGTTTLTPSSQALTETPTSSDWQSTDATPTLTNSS

[7] = NEK9 (Q8TD19), experiment wp045, direction down
[8] = NEK9 (Q8TD19), experiment wp117, direction down

Sequence of protein kinases (human kinome) (Homo sapiens, UniProt Q9NSY1) (Q9NSY1 whole entry): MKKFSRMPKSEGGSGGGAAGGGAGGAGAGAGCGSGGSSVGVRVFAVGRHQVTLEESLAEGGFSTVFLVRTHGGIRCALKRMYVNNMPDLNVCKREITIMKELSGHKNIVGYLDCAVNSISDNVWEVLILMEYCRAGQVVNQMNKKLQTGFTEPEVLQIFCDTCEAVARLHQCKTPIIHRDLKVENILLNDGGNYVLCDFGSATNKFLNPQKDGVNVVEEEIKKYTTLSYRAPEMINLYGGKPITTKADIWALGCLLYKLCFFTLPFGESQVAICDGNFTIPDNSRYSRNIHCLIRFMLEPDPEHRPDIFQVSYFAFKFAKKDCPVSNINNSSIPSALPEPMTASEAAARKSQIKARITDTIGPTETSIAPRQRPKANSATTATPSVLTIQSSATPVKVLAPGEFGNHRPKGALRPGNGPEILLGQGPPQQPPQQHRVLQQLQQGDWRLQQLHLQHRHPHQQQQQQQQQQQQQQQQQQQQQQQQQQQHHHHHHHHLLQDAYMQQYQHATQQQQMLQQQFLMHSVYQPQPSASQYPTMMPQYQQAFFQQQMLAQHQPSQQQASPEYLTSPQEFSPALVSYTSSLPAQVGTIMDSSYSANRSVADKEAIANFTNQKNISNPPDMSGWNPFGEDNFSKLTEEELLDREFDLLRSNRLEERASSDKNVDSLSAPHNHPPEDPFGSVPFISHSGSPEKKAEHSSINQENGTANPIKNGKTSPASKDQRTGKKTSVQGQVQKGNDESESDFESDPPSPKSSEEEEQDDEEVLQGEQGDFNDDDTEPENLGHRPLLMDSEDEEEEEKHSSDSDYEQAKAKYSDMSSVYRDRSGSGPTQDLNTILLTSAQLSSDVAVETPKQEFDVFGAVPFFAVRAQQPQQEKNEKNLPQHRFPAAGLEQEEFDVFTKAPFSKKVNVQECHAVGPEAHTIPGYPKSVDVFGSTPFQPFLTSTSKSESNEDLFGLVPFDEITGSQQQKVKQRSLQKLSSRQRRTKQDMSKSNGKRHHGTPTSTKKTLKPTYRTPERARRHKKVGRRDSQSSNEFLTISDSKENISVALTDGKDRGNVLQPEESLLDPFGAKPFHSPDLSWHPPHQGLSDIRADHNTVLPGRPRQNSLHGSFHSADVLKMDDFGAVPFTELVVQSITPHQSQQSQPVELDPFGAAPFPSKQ

O=C(COc1cccc2c1C(=O)N(C1CCC(=O)NC1=O)C2=O)NCCCCCCCN1CCc2cc(Nc3ncc(C4CC4)c(NCCCNC(=O)C4CCC4)n3)ccc2C1 (stereo not drawn) [BSJ.04.178]
logFC ([1]; experiment wp134): −0.6929
logFC BMP2K ([1]; experiment wp134): −0.6929

CS(=O)(=O)Nc1cccc(-c2csc3cnc(Nc4ccc(N5CCN(CCCCCOc6cccc7c6C(=O)N(C6CCC(=O)NC6=O)C7=O)CC5)cc4)nc23)c1 (stereo not drawn) [DB0614, N-(3-(2-((4-(4-(5-((2-(2,6-Dioxopiperidin-3-yl)-1,3-dioxoisoindolin-4-yl)oxy)pentyl)piperazin-1-yl)phenyl)amino)thieno[3,2-d]pyrimidin-7-yl)phenyl)methanesulfonamide]
logFC ([1]; experiment wp045): −0.3909
logFC BMP2K ([1]; experiment wp045): −0.3909
logFC [2, 7]: −2.74
logFC [2, 8]: −3.006
logFC ([2]; NEK9 Q8TD19, experiment wp045): −2.74
logFC ([2]; NEK9 Q8TD19, experiment wp117): −3.006

CC(C)S(=O)(=O)c1ccccc1Nc1nc(Nc2ccc(N3CCN(CCOCCNC(=O)CNc4cccc5c4C(=O)N(C4CCC(=O)NC4=O)C5=O)CC3)cc2)ncc1Cl (stereo not drawn) [SK.3.91]
logFC PTK2 ([3]; Accession Q05397, experiment wp105, direction down): −2.958
logFC PTK2 ([3]; PTK2 Q05397, experiment wp105): −2.958
logFC ([3]; PTK2 Q05397, experiment wp114): −1.684
logFC PTK2 ([3]; PTK2 Q05397, experiment wp114): −1.684
logFC ([3]; PTK2 Q05397, experiment wp172): −2.689
logFC PTK2 ([3]; PTK2 Q05397, experiment wp172): −2.689
logFC ([4]; experiment wp105): −0.571
logFC ([4]; experiment wp107): −0.8456
logFC ([4]; experiment wp133, 4 hr): −0.6321
logFC ([4]; experiment wp172): −0.7962
logFC MAP4K3 ([4]; experiment wp105): −0.571
logFC MAP4K3 ([4]; experiment wp107): −0.8456
logFC MAP4K3 ([4]; experiment wp133, 4 hr): −0.6321
logFC MAP4K3 ([4]; experiment wp172): −0.7962
logFC of RPS6KB1 (P23443-1) ([5]; Experiment wp107): −0.4197
logFC ([5]; experiment wp107): −0.4197
logFC ([1]; experiment wp016): −0.4706
logFC BMP2K ([1]; experiment wp016): −0.4706
logFC ([1]; experiment wp105): −0.4043
logFC BMP2K ([1]; experiment wp105): −0.4043

Cc1cnc(Nc2ccc(N3CCN(CCOCCOCCNC(=O)COc4cccc5c4C(=O)N(C4CCC(=O)NC4=O)C5=O)CC3)cc2)nc1Nc1cccc(S(=O)(=O)NC(C)(C)C)c1 (stereo not drawn) [JWG.118]
logFC ([1]; experiment wp071): −0.3528
logFC BMP2K ([1]; experiment wp071): −0.3528

Cc1cc(Nc2ncc(Br)c(Nc3cccc(F)c3C(N)=O)n2)ccc1S(=O)(=O)NCCOCCOCCOCCOCCNc1cccc2c1C(=O)N(C1CCC(=O)NC1=O)C2=O (stereo not drawn) [TMX.02.174]
logFC ([3]; PTK2 Q05397, experiment wp146): −0.8198
logFC PTK2 ([3]; PTK2 Q05397, experiment wp146): −0.8198
logFC ([6]; experiment wp146): −0.7133
logFC GSK3A ([6]; experiment wp146): −0.7133
logFC ([2]; NEK9 (Q8TD19), experiment wp146, direction down): −0.3626
logFC ([2]; NEK9 Q8TD19, experiment wp146): −0.3626

Cc1cnc(Nc2ccc(N3CCN(CCCCCCC(=O)N[C@H](C(=O)N4C[C@H](O)C[C@H]4C(=O)N[C@@H](C)c4ccc(-c5scnc5C)cc4)C(C)(C)C)CC3)cc2)nc1Nc1cccc(S(=O)(=O)NC(C)(C)C)c1 [JWG.123]
logFC of RPS6KB1 (P23443-1) ([5]; Experiment wp195): −0.3426
logFC ([5]; experiment wp195): −0.3426
logFC ([2]; NEK9 (Q8TD19), experiment wp195, direction down): −1.079
logFC ([2]; NEK9 Q8TD19, experiment wp195): −1.079

Cc1ccc(NC(=O)c2cccc(C(F)(F)F)c2)cc1N1Cc2cnc(Nc3ccc(N4CCN(CCCCC(=O)N[C@H](C(=O)N5C[C@H](O)C[C@H]5C(=O)N[C@@H](C)c5ccc(-c6scnc6C)cc5)C(C)(C)C)CC4)nc3)nc2N(C)C1=O [DB1113]
logFC ([4]; experiment wp168): −1.385
logFC MAP4K3 ([4]; experiment wp168): −1.385

CC(C)S(=O)(=O)c1ccccc1Nc1nc(Nc2ccc(N3CCN(CCOCCNC(=O)CNc4ccc5c(c4)C(=O)N(C4CCC(=O)NC4=O)C5=O)CC3)cc2)ncc1Cl (stereo not drawn) [SK.3.93]
logFC ([1]; experiment wp016): −0.4575
logFC BMP2K ([1]; experiment wp016): −0.4575

NC(=O)c1c(F)cccc1Nc1nc(Nc2ccc(S(=O)(=O)NCCOCCOCCOCCOCCNc3cccc4c3C(=O)N(C3CCC(=O)NC3=O)C4=O)cc2)ncc1Br (stereo not drawn) [TMX.02.138]
logFC ([6]; experiment wp146): −0.8225
logFC GSK3A ([6]; experiment wp146): −0.8225

CS(=O)(=O)Nc1cccc(-c2csc3cnc(Nc4ccc(N5CCN(CCOCCOCCOc6cccc7c6C(=O)N(C6CCC(=O)NC6=O)C7=O)CC5)cc4)nc23)c1 (stereo not drawn) [RSS0628]
logFC [2, 7]: −2.438
logFC ([2]; NEK9 Q8TD19, experiment wp045): −2.438

Nc1ncc(-c2ccc(S(=O)(=O)N(CCCNC(=O)CCOCCOCCOCCOCCOCCNc3cccc4c3C(=O)N(C3CCC(=O)NC3=O)C4=O)C3CC3)cc2)cc1-c1ccc2c(c1)CCNC2=O (stereo not drawn) [WH.10417.099]
logFC ([6]; experiment wp056): −0.5169
logFC GSK3A ([6]; experiment wp056): −0.5169
logFC ([6]; experiment wp103): −0.443
logFC GSK3A ([6]; experiment wp103): −0.443
logFC ([6]; experiment wp105): −0.4499
logFC GSK3A ([6]; experiment wp105): −0.4499
logFC ([6]; experiment wp107): −0.4697
logFC GSK3A ([6]; experiment wp107): −0.4697

Cc1ncsc1-c1ccc([C@H](C)NC(=O)[C@@H]2C[C@@H](O)CN2C(=O)[C@@H](NC(=O)CCCCCN2CCc3cc(Nc4ncc(C5CC5)c(NCCCNC(=O)C5CCC5)n4)ccc3C2)C(C)(C)C)cc1 [BSJ.05.026]
logFC of RPS6KB1 (P23443-1) ([5]; Experiment wp195): −0.5629
logFC ([5]; experiment wp195): −0.5629

Cc1ncsc1-c1ccc([C@H](C)NC(=O)[C@@H]2C[C@@H](O)CN2C(=O)[C@@H](NC(=O)CCCCCN2CCN(c3ccc(Nc4ncc5scc(-c6cccc(NS(C)(=O)=O)c6)c5n4)cc3)CC2)C(C)(C)C)cc1 [RSS0680, (2S,4R)-1-((S)-3,3-Dimethyl-2-(6-(4-(4-((7-(3-(methylsulfonamido)phenyl)thieno[3,2-d]pyrimidin-2-yl)amino)phenyl)piperazin-1-yl)hexanamido)butanoyl)-4-hydroxy-N—((S)-1-(4-(4-methylthiazol-5yl)phenyl)ethyl)pyrrolidine-2-carboxamide]
logFC of RPS6KB1 (P23443-1) ([5]; Experiment wp117): −0.3893
logFC ([5]; experiment wp080): −0.4358
logFC ([5]; experiment wp117): −0.3893
logFC of RPS6KB1 (P23443-1) ([5]; experiment wp080): −0.4358
logFC ([2]; NEK9 (Q8TD19), experiment wp080, direction down): −1.277
logFC [2, 8]: −1.483
logFC ([2]; NEK9 Q8TD19, experiment wp080): −1.277
logFC ([2]; NEK9 Q8TD19, experiment wp117): −1.483
